Measured values taken from patent US10265374B2, “Occidiofungin formations and uses thereof” (MISSISSIPPI STATE UNIVERSITY, priority 2014, dated 2019).
Where “and” joins values, the source holds several entries; their conditions need not be identical. Identical values can stand only once. Entries after “also recorded” stand apart in the source; their conditions may differ.

Assays:
[1] = Single dose toxicity study, i.v. occidiofungin in 1.5% hydroxy propyl-beta-cyclodextrin/PBS; assay type: in vivo, mice
Experimental: Female BALB/c mice at age of 6-8 weeks old were used. These mice were purchased from Harlan and allowed to acclimate at least 2 weeks after arrival. They were housed on a 12 hour light-dark cycle in a temperature and humidity controlled animal facility that is accredited by the American Association for Accreditation of Laboratory Animal Care. Animal care and use were in accord with NIH Guidelines and Texas A&M University regulations. Protocols used for the mice models were done in accordance to the methods reported by Luster et al. (See Reference 12).
Occidiofungin was produced as previously described and aliquoted and lyophilized into 100 μg quantities in 1.8 mL centrifuge tubes. […] Mice (5 mice per group) were given occidiofungin dissolved in 1.5% hydroxy propyl-beta-cylcodextrin suspended in phosphate buffered saline (PBS). […] For the experiments, occidiofungin was administered by intravenous (i.v.) injection into the tail vein at a single dose at 5 mg/kg of body weight. The excipient control in each experiment matched the vehicle. Body weight and clinical signs (movement, posture, skin lesions, appearance of fur indicating normal grooming, and behaviors) were recorded following administration at one, four, eight, sixteen, and twenty-four hours. Necropsies were performed at 24 hours following administration of occidiofungin.
Blood and tissue samples from animals dosed at 5 mg/kg of body weight with occidiofungin in 1.5% hydroxy propyl-beta-cylcodextrin suspended in PBS were taken 24 hours following excipient or drug administration. Mice were anesthetized with isofluorane. Blood was then taken from the retroorbital plexus or heart puncture for serum biochemistry assays (alkaline phosphatase, alanine aminotransferase, aspartate aminotransferase, albumin, and blood urea nitrogen) and hematology (white blood cell count and white blood cell differentiation). Body weight was measured immediately before treatment and 24 hours later before the mice were fully anesthetized and fixed in 10% neutral buffered formalin. Histological examination was performed on a portion of each organ by using routine paraffin embedding technique and staining with hematoxylin and eosin (H & E) (See Reference 14). All the sections were examined under light microscopy for pathological changes by a co-author of this paper, who is a board certified veterinary pathologist.

[2] = Pharmacokinetics of occidiofungin in DOPC or DOPC:DPPG vesicles; assay type: in vivo, mice; settings: vesicle formulations, 2.5 mg/kg i.v., mice
Experimental: Entrapment of occidiofungin in vesicles was done using 1,2-Dioleoyl-sn-glycero-3-phosphocholine (DOPC) and 1,2-dipalmitoyl-sn-glycero-3-[phospho-rac-(3-lysyl(1-glycerol))] (DPPG) from Avanti polar lipids. Lipid cake formation and subsequent hydration was done according to the manufacturer's recommendation. Briefly, 20 mg/ml of DOPC in chloroform was placed in a glass beaker and dried by vacuum evaporation to remove the organic solvent. The lipid film formed was hydrated using a 1 μg/μl solution of occidiofungin in 1.5% (2-Hydroxypropyl)-β-cyclodextrin (Alfa Aesar), while maintaining the lipid concentration at 20 mg/ml and the solution was sonicated to form the vesicles. Similarly, DPPG was mixed with DOPC at a ratio of 9:1 (DOPC:DPPG) to make a homogenous lipid mixture at a concentration of 20 mg/ml and the same process of drying and hydration was repeated to make vesicles. Following vesicle formation, estimation of the amount of occidiofungin trapped inside each type of vesicle was done. The mixture containing free and vesicle trapped occidiofungin was passed through a gel filtration column containing Sephadex G-10 beads. The void volume (containing only the vesicle trapped occidiofungin) was collected and occidiofungin extracted using methanol (50% final concentration). Liquid chromatography was done on the extracted sample, and a standard and the concentration of occidiofungin in the extracted sample was estimated by a comparison of peak volumes.
Occidiofungin in DOPC and DOPC-DPPG, at a concentration of 2.5 mg/kg, with ˜1.25 mg/kg entrapped in vesicles, was administered to six female BALB/c mice respectively via intravenous administration. […] The mice were weighed prior to the start of the experiment and every 24 hours post injection (hpi).
Blood was drawn at time points 1 hpi, 3 hpi, 5 hpi, 7 hpi, 9 hpi, 12 hpi, 18 hpi, 24 hpi and 48 hpi. 15 μl of blood was drawn from the lateral saphenous vein of each mouse for the first three time points. Blood from three mice were pooled together and added to 5 μl of 6.4% citric acid to prevent coagulation. From the fourth time point, blood was drawn from the tail vein of the mice. Blood samples were spun down at 13000 rpm for 10 minutes to separate the plasma. The plasma and the blood pellet obtained were stored separately at −20° C. until analysis. The plasma samples were thawed and the occidiofungin was extracted using a final concentration of 50% methanol. The protein precipitate was spun down at 13000 rpm for 10 minutes and the supernatant was used for analysis. Liquid chromatography was done using Acclaim 120 C18 columns (Length: 150 mm; I.D: 2.1 mm; 5 μm) to purify the occidiofungin in the sample. The occidiofungin was then subjected to MS/MS. Fragmentation of the occidiofungin (parent mass 1200 and 1216 Da) was carried out and the fragment of 1068 and 1084 Da m/z, which corresponds to the occidiofungin molecule (A and B forms, respectively) without the xylose sugar, was used for quantification of occidiofungin. A calibration curve constructed using standard concentrations of occidiofungin in plasma was used to analyze the samples obtained from the mice for pharmacokinetics (See FIGS. 6A-6B & 7A-7B).

[3] = Solubility of occidiofungin; assay type: physicochemical
[4] = single IV dose 5 mg/kg, 24 hours
[5] = single IV dose 5 mg/kg, 24 hours, mean, 5 mg/kg

Substance: occidiofungin
- behavioral response at 1 hour and to a lesser extent at 4 hours post i.v. administration ([1]; 5 mg/kg i.v.): more lethargic than excipient treated mice and had ruffled fur
- mice behavior by 8, 16, and 24 hour post injection ([1]; 5 mg/kg i.v.): appeared to be normal
- histological examination of organ tissues ([1]; 5 mg/kg i.v., 24 hours, esophagus, stomach, small intestine, colon, liver, pancreas, spleen, kidneys, lungs, heart, brain): no histological abnormalities; also recorded: No observable differences
- ratio of AST to ALT in all treated mice ([1]; 5 mg/kg i.v., 24 hours, ratio less than one indicative of liver damage): greater than one
- average weight loss ([1]; single 5 mg/kg i.v. dose, 24 hours): 6.2%
- Hematology: Lymphocytes % [1, 4]: 54 ± 15%
- Hematology: Neutrophils % [1, 4]: 43 ± 14%
- Hematology: Platelet estimate [1, 4]: 39 ± 21 xK/ul
- Hematology: WBC estimate [1, 4]: 4750 ± 1225
- Serum Biochemistry: ALP [1, 4]: 99 ± 34 U/l
- Serum Biochemistry: Albumin [1, 4]: 3.1 ± 0.6 g/dL
- Serum Biochemistry: BUN [1, 4]: 29.6 ± 5 mg/dL
- Weight Change % ([1]; single IV dose 5 mg/kg, 24 hours after administration, mean ± SD): −6.2 ± 9.9%
- Serum Biochemistry: ALT (SGPT) [1, 5]: 521 U/l and 521 ± 652 U/l
- Serum Biochemistry: AST (SGOT) [1, 5]: 765 U/l and 765 ± 692 U/l
- toxicity observed in mice ([1]; single i.v. dose at 5 mg/kg): no significant toxicity
- half-life [2]: ~14 h
- O.D.600 after addition of vehicle to the purified dried drug ([3]; 1.5% hydroxy propyl-beta-cyclodextrin in PBS, suggests the drug went into solution): negligible absorbance difference to vehicle without drug
- solubility in aqueous buffers ([3]; aqueous buffers): relatively low
